Source: paper PMC9977887, “Crocodile defensin (CpoBD13) antifungal activity via pH-dependent phospholipid targeting and membrane disruption” (Nature Communications, 2023)
Where two headings read alike, the source gives them in different places. Where no end group is shown, it is not given here.

What was measured:
[1] = test system: C. albicans ATCC 10231; experiment: Fungal growth inhibition assay; type: cell-based, Candida albicans
Description: For fungal growth assays, overnight cultures of C. albicans ATCC 10231 cells (yeast peptone dextrose broth, 30°C, shaking at 160 rpm) were pelleted (2000 g, 5 min), washed once in 0.5× potato dextrose broth (BD Biosciences, Franklin Lakes, NJ) and finally resuspended in the same media. Cells were seeded onto a 96-well plate (400 cells, 50 µL) and treated with an equal volume of varying concentrations of defensin in 0.5× potato dextrose broth. After incubating the samples (24 h, 30 °C), the plates were shaken to distribute the cells and growth was determined by performing a 9-well scan (600 nm) using a Spectramax M5e microplate reader (Molecular Devices, San Jose, CA). For assays testing defensin salt tolerance, C. albicans cells were instead resuspended in 1x potato dextrose broth and treated with an equal volume of CpoBD13 + NaCl solution at their intended concentrations. Propidium iodide (PI) uptake assays were performed by preparing the cells as per the standard growth inhibition assay however they were instead seeded onto a U-bottom 96-well plate (50,000 cells, 25 µL). […] For PI uptake experiments performed at a specific pH, the same method was followed with the exception that cells were resuspended in 1× potato dextrose broth while defensin titrations were diluted in 40 mM MES buffer at the intended pH. An example PI uptake gating strategy is presented in Supplementary Fig. 1d.

[2] = test system: HeLa cells; experiment: MTT/MTS cell viability assay; type: cell-based, human; details: 48 h, at the assessed concentrations
Description: (§1) Human epithelial cervical cancer (HeLa, ATCC, CCL-2), prostate cancer (PC3, ATCC, CRL-1435) and histiocytic lymphoma (U937, ATCC, CRL-1593.2) cells were obtained from the American Type Culture Collection (Gaithersburg, Maryland) and cultured in RPMI-1640 medium (Thermo Fisher Scientific, Waltham, MA) supplemented with 5–10% (v/v) foetal bovine serum (FBS), 100 U/mL penicillin and 100 U/mL streptomycin (Invitrogen, Carlsbad, CA). Adult human dermal fibroblasts (AHDF, Lonza, CC-2511) cells were obtained from Lonza (Basel, Switzerland) and cultured in Dulbecco’s Modified Eagle Medium (DMEM) (Thermo Fisher Scientific) supplemented with 10% (v/v) FBS, 100 U/mL penicillin and 100 U/mL streptomycin. Human umbilical vein epithelial (HUVEC, Lonza, CC-2519) cells were obtained from Lonza and cultured in EBM-2 medium supplemented with EGM-2 SingleQuots (Lonza). All cell lines were maintained at 37 °C in a humidified incubator with 5% CO2.
(§2) Cell viability assays were performed using MTT/MTS as previously described[8].

[3] = test system: PC3 cells; experiment: MTT/MTS cell viability assay; type: cell-based, human; details: 48 h, at the assessed concentrations
Description: as §1, §2

[4] = test system: U937 cells; experiment: Propidium iodide uptake assay in serum-free medium; type: cell-based, human
Description: For propidium iodide uptake assays in serum-free medium, U937 cells (after centrifugation at 300 g, 5 min) were washed once in serum-free RPMI-1640, pelleted again (as previous centrifugation) and resuspended in serum-free media. […] PI (diluted in ice-cold PBS) was added to a final concentration of 1 µg/mL before analysis by flow cytometry using a BD FACSCanto II with FACSDiva 8.0.1 (BD Biosciences).

[5] = Liposome pulldown; type: binding; details: for Fraction of total protein (%), bound fraction: pH 5.5 (20 mM MES); for Fraction of total protein (%), bound fraction / Fraction of total protein (%), Bound: 1 µg defensin
Description: Liposomes were prepared using natural chicken egg L-α-phophatidylcholine and L-α-phosphatidic acid dissolved in chloroform (Avanti Polar Lipids), and liposome pulldowns (at pH 7.4) and calcein-encapsulated liposome lysis assays were performed as previously described. For liposome pulldowns performed at pH 5.5, the same protocol was used with minor variations. The desiccated lipid films were resuspended in 20 mM MES pH 7.4 and were washed in the same buffer during the centrifugation process. After the final wash step, the liposome pellets were resuspended in 20 mM MES pH 5.5 and incubated with CpoBD13 or mutants thereof (also prepared in the same acidic buffer).

[6] = test system: HUVEC cells
Description: as §1, §2

[7] = PC only liposomes, pH 7.4, replicate 1
[8] = PC only liposomes, pH 7.4, replicate 2
[9] = PC only liposomes, pH 7.4, replicate 3
[10] = PC:PA 95:5 liposomes, pH 7.4, replicate 1
[11] = PC:PA 95:5 liposomes, pH 7.4, replicate 2
[12] = PC:PA 95:5 liposomes, pH 7.4, replicate 3

“CpoBD13: saltwater crocodile β-defensin 13, histidine-rich, three disulphide bonds, recombinantly expressed in Pichia pastoris (NGSYYSTLQCRNNHGHCRRLCFHGEQWIGNCNGRHQHCCK; disulfide (positions not given here); also: three disulphide bonds, pairings not given here)” gave an IC50 ([1]; 24 h, Replicate 1, unit not in table, µM, read-out: IC50) of 4.19 µM, an IC50 ([1]; 24 h, Replicate 2, unit not in table, µM, read-out: IC50) of 4.11 µM and an IC50 ([1]; 24 h, Replicate 3, unit not in table, µM, read-out: IC50) of 4.1 µM. The IC50 ([1]; 24 h, mean, n = 3, assessed range 0–10 µM, read-out: IC50 of fungal growth inhibition) was 4.1 µM, the IC50 ([1]; Replicate 1, read-out: IC50) was 5.39 µM and the IC50 ([1]; Replicate 2, read-out: IC50) was 5.34 µM. For the same substance, the IC50 ([1]; Replicate 3, read-out: IC50) was 5.46 µM, the “effect on cell viability” value [2] was “did not affect the viability” and the “effect on cell viability” value [3] was “did not affect the viability”. For the same substance, the “PI positivity (%)” value ([4]; 1.5625 μM CpoBD13, replicate 1) was 3.27%, the “PI positivity (%)” value ([4]; 1.5625 μM CpoBD13, replicate 2) was 9.7% and the “PI positivity (%)” value ([4]; 1.5625 μM CpoBD13, replicate 3) was 3.5%. For the same substance, the “PI positivity (%)” value ([4]; 3.125 μM CpoBD13, replicate 1) was 2.47%, the “PI positivity (%)” value ([4]; 3.125 μM CpoBD13, replicate 2) was 6.8% and the “PI positivity (%)” value ([4]; 3.125 μM CpoBD13, replicate 3) was 4.1%. The “PI positivity (%)” value ([4]; 6.25 μM CpoBD13, replicate 1) was 1.67%, the “PI positivity (%)” value ([4]; 6.25 μM CpoBD13, replicate 2) was 10.8% and the “PI positivity (%)” value ([4]; 6.25 μM CpoBD13, replicate 3) was 1%. The “PI positivity (%)” value ([4]; 12.5 μM CpoBD13, replicate 1) was 3.27%, the “PI positivity (%)” value ([4]; 12.5 μM CpoBD13, replicate 2) was 9.1% and the “PI positivity (%)” value ([4]; 12.5 μM CpoBD13, replicate 3) was 14.3%. For the same substance, the “PI positivity (%)” value ([4]; 25 μM CpoBD13, replicate 1) was 2.27%, the “PI positivity (%)” value ([4]; 25 μM CpoBD13, replicate 2) was 13.1% and the “PI positivity (%)” value ([4]; 25 μM CpoBD13, replicate 3) was 14.3%. The “PI positivity (%)” value ([4]; 50 μM CpoBD13, replicate 1) was 2.77%, the “PI positivity (%)” value ([4]; 50 μM CpoBD13, replicate 2) was 20.5% and the “PI positivity (%)” value ([4]; 50 μM CpoBD13, replicate 3) was 18.6%. For the same substance, the “PI positivity (%)” value ([4]; 100 μM CpoBD13, replicate 1) was 15.77%, the “PI positivity (%)” value ([4]; 100 μM CpoBD13, replicate 2) was 6.8% and the “PI positivity (%)” value ([4]; 100 μM CpoBD13, replicate 3) was 23%. For the same substance, the “membrane permeabilisation (PI uptake)” value ([4]; serum-free media, 30 min, 37°C) was “unable to effectively permeabilise”, the “Fraction of total protein (%), bound fraction” value (“Fraction … (%), bound fraction” below) ([5]; PC only liposomes, replicate 1) was 18.4161% and the “Fraction … (%), bound fraction” value ([5]; PC only liposomes, replicate 2) was 18.4773%. For the same substance, the “Fraction … (%), bound fraction” value ([5]; PC only liposomes, replicate 3) was 29.8053%, the “Fraction of total protein (%), Bound” value [5, 7] was 12.3509% and the “Fraction of total protein (%), Bound” value [5, 8] was 1.776%. The “Fraction of total protein (%), Bound” value [5, 9] was 33.499%, the “Fraction of total protein (%), Unbound” value [5, 7] was 82.3399% and the “Fraction of total protein (%), Unbound” value [5, 8] was 73.2719%. The “Fraction of total protein (%), Unbound” value [5, 9] was 23.4493%, the “binding to PA-enriched liposomes” value ([5]; PC:PA 95:5, pH 7.4) was “preferentially bound” and the “Fraction … (%), bound fraction” value ([5]; PC:PA 95:5 liposomes, replicate 1) was 88.2406%. The “Fraction … (%), bound fraction” value ([5]; PC:PA 95:5 liposomes, replicate 2) was 92.9019%, the “Fraction … (%), bound fraction” value ([5]; PC:PA 95:5 liposomes, replicate 3) was 89.3441% and the “Fraction of total protein (%), Bound” value [5, 10] was 40.526%. The “Fraction of total protein (%), Bound” value [5, 11] was 42.0716%, the “Fraction of total protein (%), Bound” value [5, 12] was 52.0773% and the “Fraction of total protein (%), Unbound” value [5, 10] was 36.1151%. For the same substance, the “Fraction of total protein (%), Unbound” value [5, 11] was 13.782%, the “Fraction of total protein (%), Unbound” value [5, 12] was 17.5375% and the “binding to PC only liposomes” value ([5]; pH 7.4) was “negligible binding”. The “effect on cell viability” value [6] was “did not affect the viability”.
